Reference: patent US20240002326A1, “COMPOUNDS AND USE THEREOF IN METHODS OF TREATMENT” (The University of Queensland, priority 2016, published 2024)

Experiments:
SOX18[109] HMG fragment = SOX18[109] HMG fragment (Mus musculus (Mouse), UniProt P43680); test: FP DNA-binding competition assay, SOX18[109] HMG fragment; conditions: for remaining activity at 50 µM / remaining activity at 200 µM: SOX18/DNA binding; for remaining activity at 50 µM: read-out: FP bound fraction (%) 50 μM; for remaining activity at 200 µM: read-out: FP bound fraction (%) 200 μM; for SOX18-DNA binding inhibition (FP, words): SAR library, SOX18[109]
Protocol: Mouse SOX HMG fragments. The HMG domains of mouse SOX2 (Group B), SOX11 (Group C), SOX6 (Group D), SOX9 (Group E), SOX18 (Group F) and SOX15 (Group G) were BP cloned from cDNA templates (IMAGE cDNA clone IDs: Sox18: 3967084; Sox9: 5354229; Sox4: 6822618) into a pDONRTM221 pENTRY vector, sequenced and recombined into a pETG20A or a pHisMBP expression plasmid using Gateway®LR Technology (Ng et al., 2012). Constructs were transformed into Escherichia coli BL21(DE3) cells (Luria-Bertani, 100 μg/ml Ampicillin).
The DNA-binding competition assay was performed in black 384-well plates, with mouse full length SOX18, or SOX-HMG fragments. All experiments were performed using a fluorescently-labelled Prox1-DNA element. Controls consisted of free labelled DNA (low FP milli-Polarization index, mP), labelled DNA in presence of protein (negative control, high mP), and labelled DNA and protein in presence of competing excess of unlabelled DNA (positive control, low mP)
The DNA-binding competition assay was performed in 25 uL, in black 384-well plates, using either 30 mM HEPES (N-2-Hydroxyethylpiperazine-N′-2-Ethanesulfonic Acid) (pH 7.5, with 100 mM KCl, 40 mM NaCl, 10 mM NH4OAc, […], 2 mM MgCl2, 0.5 mM EDTA, 0.01% NP-40) for mouse full length SOX18, or Tris-NaCl (10 mM Tris pH 8.0 and 100 mM NaCl) for SOX-HMG fragments. All experiments were performed using a 40 bp double-stranded Prox1-DNA element with 5′ fluorescein amidite (FAM) label (Sigma Proligo or InVitrogen). Optimum binding levels were obtained at 200 nM of mouse full length SOX18 and 60 nM of SOX-HMG fragment, in presence of 5 nM labelled DNA. Controls consisted of free labelled DNA (low FP milli-Polarization index, mP), labelled DNA in presence of protein (negative control, high mP), and labelled DNA and protein in presence of 400 time competing excess of unlabelled DNA (positive control, low mP). Depending on compound, final DMSO concentrations ranged from 2 to 3.33% v/v. After mixing protein, DNA probe and compound, plates were sealed and briskly agitated in the dark for 5 minutes at room temperature, 10 minutes at 37° C., and 30 minutes at room temperature, before reading fluorescence polarization on a Tecan M1000Pro (λexc=485 nm, λem=525 nm). All experiments were performed in triplicates.
In order to pinpoint the possible binding site of the small molecules, the FP assays were repeated with a shorter, DNA-binding centred protein fragment. The DNA binding domain of SOX TFs consists of the […] amino acid long High Mobility Group (HMG) box. The 109 amino-acid long SOX18 fragment (SOX18[109]) corresponds to residues 69-177 (numbering by mouse SOX18), which includes the HMG box (residues 78-149) and N- and C-terminal flanking sequences of 9 and 28 amino-acids, respectively.

[1] = Cytotoxicity assay (Alamar blue), HEK293; type: cell-based; conditions: human, HEK293 cells; HEK293, 24 h
Protocol: Cell toxicity was determined using Alamar blue, as previously described (McMillian et al., 2002). COS-7 cells were seeded as 7000 cells per well in black wall clear bottom 96-well plates in DMEM medium (Life Technologies Australia) with 10% FBS. HepG2 and HEK293 cell lines, from ATCC, were seeded as 5000 cells per well in black wall clear bottom 384-well cell culture plates in DMEM with 1% FBS. Cells were cultured for 24 h at 37° C., 5% CO2. A serial dilution of compounds was added, with a final DMSO concentration adjusted to 0.5% v/v. Cells were incubated for another 24 h. 1 Triton X-100 was used as negative control, and 0.5% DMSO as positive control. 5 μM Alamar blue was added to each well and fluorescence was measured (λexc=560 nm, λem=590 nm) after 2 h incubation at 37° C. Data were analysed using Prism software.

[2] = Cytotoxicity assay (Alamar blue), HepG2; type: cell-based; conditions: human, HepG2 cells; HepG2, 24 h

Chain of SOX18[109] HMG fragment (P43680 69-177): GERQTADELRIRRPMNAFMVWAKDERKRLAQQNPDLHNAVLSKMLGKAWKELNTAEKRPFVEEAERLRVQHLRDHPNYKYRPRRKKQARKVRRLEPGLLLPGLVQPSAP

| Structure (SMILES) | remaining activity at 50 µM (SOX18[109] HMG fragment) [%] | remaining activity at 200 µM (SOX18[109] HMG fragment) [%] | SOX18-DNA binding inhibition (FP, words) (SOX18[109] HMG fragment) | CC50 at 24 h [1] [µM] | CC50 at 24 h [2] [µM] |
| --- | --- | --- | --- | --- | --- |
| COc1cc(O)c(C(=O)O)c(CCc2ccc3ccccc3c2)c1 [Sm29, 2-hydroxy-4-methoxy-6-(2(naphthalen-2-yl)ethyl)benzoic acid] | 73 ± 1.9 | 2 ± 7.2 | – | 64.4 | 71.2 |
| CCN(CC)C(=O)c1c(/C=C\c2ccc3ccccc3c2)cccc1OC [Sm15, (Z)-N,N-diethyl-2-methoxy-6-(2-(naphthalen-2-yl)vinyl)benzamide] | 103 ± 7.4 | 121 ± 4.7 | – | > 100 | – |
| COc1cc(/C=C/c2ccc3ccccc3c2)c(C(=O)O)c(OC)c1 [Sm27, (E)-2,4-dimethoxy-6-(2-(naphthalen-2-yl)vinyl)benzoic acid] | 97 ± 6.1 | 92.8 ± 21.7 | – | > 100 | > 100 |
| CCN(CC)C(=O)c1c(/C=C/c2ccc3ccccc3c2)cccc1OC [Sm16, (E)-N,N-diethyl-2-methoxy-6-(2-(naphthalene-2-yl)vinyl)benzamide] | 99.3 ± 6.2 | 109 ± 4.9 | – | > 100 | – |
| Cc1cc(O)c(C(=O)O)c(/C=C/c2ccc3ccccc3c2)c1 [Sm35, (E)-2-hydroxy-4-methyl-6-(2-(naphthalen-2-yl)vinyl)benzoic acid] | -1.5 ± 3.5 | -3.7 ± 7.9 | – | 52.2 | 30.3 |
| Oc1cc(CCc2ccc3ccccc3c2)cc(O)c1O [Sm44, 5-(2-(naphthalen-2-yl)ethyl)benzene-1,2,3-triol] | 108 ± 10.1 | 53.5 ± 9.6 | not active | > 100 | > 100 |
| Cc1cc(O)c(C(=O)O)c(CCc2ccc3ccccc3c2)c1 [Sm36, 2-hydroxy-4-methyl-6-(2-(naphthalen-2-yl)ethyl)benzoic acid] | 10.9 ± 9.6 | -3.9 ± 6.8 | – | 39.9 | 37.7 |
| O=C(O)c1c(O)cccc1/C=C/c1ccccc1 [Sm21, (E)-2-hydroxy-6-styrylbenzoic acid] | 103 ± 8.8 | 98.1 ± 2.1 | – | > 100 | > 100 |
| O=C(O)c1c(O)cc(Cl)cc1/C=C/c1ccc2ccccc2c1 [Sm32, (E)-4-chloro-2-hydroxy-6-(2-(naphthalen-2-yl)vinyl)benzoic acid] | 3.9 ± 6 | 10.9 ± 5.2 | – | 37.6 | 24 |

Continued, in another order:

| remaining activity at 50 µM (SOX18[109] HMG fragment) [%] | remaining activity at 200 µM (SOX18[109] HMG fragment) [%] | SOX18-DNA binding inhibition (FP, words) (SOX18[109] HMG fragment) | Structure (SMILES) | CC50 at 24 h [1] [µM] | CC50 at 24 h [2] [µM] |
| --- | --- | --- | --- | --- | --- |
| 102 ± 9.7 | 117 ± 8.1 | – | COc1cc(CCc2ccccc2)cc(OC)c1OC [Sm39, 1,2,3-trimethoxy-5-phenethylbenzene] | > 100 | > 100 |
| 102 ± 11.2 | 120 ± 6.6 | – | COc1cc(/C=C/c2ccccc2)cc(OC)c1OC [Sm38, (E)-1,2,3-trimethoxy-5-styrylbenzene] | > 100 | > 100 |
| 106 ± 9.5 | 113 ± 3.6 | – | COc1cc(CCc2ccc3ccccc3c2)cc(OC)c1OC [Sm43, 2-(3,4,5-trimethoxyphenethyl)naphthalene] | > 100 | > 100 |
| 99 ± 7.6 | 109 ± 2.8 | – | COc1cc(CCc2ccc3ccccc3c2)c(C(=O)O)c(OC)c1 [Sm30, 2,4-dimethoxy-6-(2-(naphthalen-2-yl)ethyl)benzoic acid] | > 100 | > 100 |
| 98.1 ± 6.1 | 93.1 ± 9.5 | completely eliminated all activity | O=C(O)c1c(O)cccc1CCc1ccccc1 [Sm22, 2-hydroxy-6-phenethylbenzoic acid] | > 100 | > 100 |
